The source of these data is patent publication US20180000085A1, “USE OF PICOLINAMIDE COMPOUNDS WITH FUNGICIDAL ACTIVITY” (DOW AGROSCIENCES LLC, priority 2014, published 2018).

The test system of one assay is Zymoseptoria tritici. Kind of assay: Leaf blotch of wheat (SEPTTR) disease control on wheat seedlings. More on the design: key to SEPTTR 1DP, HV activity at 100 ppm (% control rating) / SEPTTR 3DC, HV activity at 100 ppm (% control rating) / SEPTTR disease control, 1DP / SEPTTR disease control, 3DC / SEPTTR 1DP disease control rating, HV activity / SEPTTR 3DC disease control rating, HV activity / SEPTTR 3DC, LV activity at 125.1 g/H (% Control rating) / SEPTTR 1DP, LV activity at 125.1 g/H (% Control rating) / SEPTTR 1DP disease control rating, LV activity at 125.1 g/H / SEPTTR 3DC disease control rating, LV activity at 125.1 g/H / SEPTTR 3DC disease control rating, HV activity at 100 ppm / SEPTTR 1DP disease control rating, HV activity at 100 ppm / HV activity at 100 ppm SEPTTR 3DC (disease control rating) / HV activity at 100 ppm SEPTTR 1DP (disease control rating) / LV activity at 125.1 g/H SEPTTR 1DP (disease control rating) / LV activity at 125.1 g/H SEPTTR 3DC (disease control rating): A: > 80; B: ≤ 80; C: Not Tested; D: No Activity Observed in the Reported Assay. As to conditions: for SEPTTR 1DP disease control rating, HV activity / SEPTTR 3DC disease control rating, HV activity: HV application at 100 ppm; for SEPTTR 1DP disease control rating, HV activity at 100 ppm / SEPTTR 3DC disease control rating, HV activity at 100 ppm: high volume application. The assay is classed as in vivo.

The test system of the next assay is Puccinia triticina. The experiment in a line: Wheat brown rust (PUCCRT) disease control on wheat seedlings. On the set-up: key to PUCCRT 3DC, HV activity at 100 ppm (% control rating) / PUCCRT disease control, 3DC / PUCCRT 1DP disease control rating, HV activity / PUCCRT 3DC disease control rating, HV activity / PUCCRT 3DC, LV activity at 125.1 g/H (% Control rating) / PUCCRT 1DP, LV activity at 125.1 g/H (% Control rating) / PUCCRT 3DC disease control rating, LV activity at 125.1 g/H / PUCCRT 1DP disease control rating, LV activity at 125.1 g/H / PUCCRT 3DC disease control rating, HV activity at 100 ppm / PUCCRT 1DP disease control rating, HV activity at 100 ppm / HV activity at 100 ppm PUCCRT 3DC (disease control rating) / LV activity at 125.1 g/H PUCCRT 1DP (disease control rating) / LV activity at 125.1 g/H PUCCRT 3DC (disease control rating): A: > 80; B: ≤ 80; C: Not Tested; D: No Activity Observed in the Reported Assay. The assay is classed as in vivo. As to conditions: for PUCCRT 1DP disease control rating, HV activity / PUCCRT 3DC disease control rating, HV activity: HV application at 100 ppm; for PUCCRT 1DP disease control rating, HV activity at 100 ppm / PUCCRT 3DC disease control rating, HV activity at 100 ppm: high volume application.

The mark [1] stands for this setting: 1 Day Protectant, wheat leaf blotch.
[2] abbreviates: 3 Day Curative, wheat leaf blotch.
Setting [3] is: 1 Day Protectant, wheat brown rust.
Setting [4] is: 3 Day Curative, wheat brown rust.
The mark [5] stands for this setting: low volume application, 125.1 g/H, 1 Day Protectant.
Setting [6] is: low volume application, 125.1 g/H, 3 Day Curative.
[7] abbreviates: low volume application, 125.1 g/H, 1 day protectant.
Setting [8] is: low volume application, 125.1 g/H, 3 day curative.

Each structure is given as a SMILES string.

For the compound `CCCOC(CC)C(Oc1ccccc1)C(C)OC(=O)C(CC(C)C)NC(=O)c1nccc(OC)c1OCOC(C)=O` (centres unmarked) [Cmpd 448], in the assay with Zymoseptoria tritici (setting [1]), the “SEPTTR 1DP disease control rating, HV activity” value is on record as “B (≤ 80)”. Further, the “SEPTTR 3DC disease control rating, HV activity” value in the assay with Zymoseptoria tritici (setting [2]) is “B (≤ 80)”. For the same compound, the “PUCCRT 1DP disease control rating, HV activity” value with Puccinia triticina (setting [3]) is given as “A (> 80)”. For the same compound, in the assay on Puccinia triticina (setting [4]), the “PUCCRT 3DC disease control rating, HV activity” value is given as “B (≤ 80)”.
As for `CCC(CC)C(Oc1ccc(Cl)cc1Cl)C(C)OC(=O)C(C)NC(=O)c1nccc(OC)c1O` (centres unmarked) [Cmpd 381], the “SEPTTR 1DP disease control rating, HV activity” value in the assay with Zymoseptoria tritici (setting [1]) is “D”. Moreover, the “SEPTTR 3DC disease control rating, HV activity” value with Zymoseptoria tritici (setting [2]) is “D”. Besides, in the assay on Puccinia triticina (setting [3]), the “PUCCRT 1DP disease control rating, HV activity” value is “D”. Further, the “PUCCRT 3DC disease control rating, HV activity” value with Puccinia triticina (setting [4]) was “D”.
`C=CC[C@@H](OCc1ccccc1)[C@H](C)OC(=O)[C@H](C)NC(=O)c1nccc(OC)c1O` [Cmpd 333, (S)-(2S,3R)-3-(benzyloxy)hex-5-en-2-yl-2-(3-hydroxy-4-methoxypicolinamido)propanoate]: the “SEPTTR 1DP disease control rating, HV activity” value with Zymoseptoria tritici (setting [1]) is listed as “B (≤ 80)”. In addition, the “SEPTTR 3DC disease control rating, HV activity” value in the assay with Zymoseptoria tritici (setting [2]) is given as “B (≤ 80)”. Also, the “PUCCRT 1DP disease control rating, HV activity” value in the assay on Puccinia triticina (setting [3]) is reported as “A (> 80)”. Also, the “PUCCRT 3DC disease control rating, HV activity” value in the assay with Puccinia triticina (setting [4]) is “A (> 80)”.
In the case of `COc1ccnc(C(=O)N[C@@H](C)C(=O)O[C@@H](C)[C@H](Oc2ccc(Cl)cc2Cl)C(C)C)c1OC(C)=O` [Cmpd 567], the “SEPTTR 1DP, LV activity at 125.1 g/H (% Control rating)” value in the assay on Zymoseptoria tritici (setting [5]) was “D”. Moreover, in the assay on Zymoseptoria tritici (setting [6]), the “SEPTTR 3DC, LV activity at 125.1 g/H (% Control rating)” value is reported as “A (> 80)”. Also, in the assay with Puccinia triticina (setting [5]), the “PUCCRT 1DP, LV activity at 125.1 g/H (% Control rating)” value was “A (> 80)”. For the same compound, in the assay with Puccinia triticina (setting [6]), the “PUCCRT 3DC, LV activity at 125.1 g/H (% Control rating)” value is “A (> 80)”.
For the compound `COc1ccnc(C(=O)N[C@@H](C)C(=O)O[C@@H](C)[C@H](Oc2ccccc2)C2CC2)c1O` [Cmpd 1016], the “SEPTTR 1DP disease control rating, HV activity at 100 ppm” value with Zymoseptoria tritici (100 ppm, 1 day protectant) is recorded as “B (≤ 80)”. In addition, in the assay with Zymoseptoria tritici (100 ppm, 3 day curative), the “SEPTTR 3DC disease control rating, HV activity at 100 ppm” value is recorded as “B (≤ 80)”. Moreover, the “PUCCRT 1DP disease control rating, HV activity at 100 ppm” value in the assay on Puccinia triticina (100 ppm, 1 day protectant) is “A (> 80)”. Besides, in the assay on Puccinia triticina (100 ppm, 3 day curative), the “PUCCRT 3DC disease control rating, HV activity at 100 ppm” value is “A (> 80)”.
For `COc1ccnc(C(=O)N[C@@H](CC(C)C)C(=O)O[C@@H](C)[C@H](Oc2ccc(Cl)cc2Cl)C(C)C)c1OCOC(C)=O` [Cmpd 565], in the assay with Zymoseptoria tritici (setting [5]), the “SEPTTR 1DP, LV activity at 125.1 g/H (% Control rating)” value is given as “D”. In addition, the “SEPTTR 3DC, LV activity at 125.1 g/H (% Control rating)” value in the assay on Zymoseptoria tritici (setting [6]) is on record as “B (≤ 80)”. For the same compound, the “PUCCRT 1DP, LV activity at 125.1 g/H (% Control rating)” value with Puccinia triticina (setting [5]) is “B (≤ 80)”. Moreover, the “PUCCRT 3DC, LV activity at 125.1 g/H (% Control rating)” value with Puccinia triticina (setting [6]) is reported as “B (≤ 80)”.
As for `CCCOC(CC)C(Oc1ccccc1)C(C)OC(=O)C(NC(=O)c1nccc(OC)c1OCOC(C)=O)C(C)C` (centres unmarked) [Cmpd 447], the “SEPTTR 1DP disease control rating, HV activity” value in the assay on Zymoseptoria tritici (setting [1]) is “A (> 80)”. For the same compound, the “SEPTTR 3DC disease control rating, HV activity” value in the assay with Zymoseptoria tritici (setting [2]) is on record as “B (≤ 80)”. For the same compound, the “PUCCRT 1DP disease control rating, HV activity” value with Puccinia triticina (setting [3]) is “A (> 80)”. The “PUCCRT 3DC disease control rating, HV activity” value in the assay on Puccinia triticina (setting [4]) was “A (> 80)”.
Consider `CCC(CC)C(Oc1ccc(Cl)cc1Cl)C(C)OC(=O)C(CC(C)C)NC(=O)c1nccc(OC)c1OC(C)=O` (centres unmarked) [Cmpd 689], for which, in the assay with Zymoseptoria tritici (setting [7]), the “SEPTTR 1DP disease control rating, LV activity at 125.1 g/H” value is given as “D”. In the assay on Zymoseptoria tritici (setting [8]), the “SEPTTR 3DC disease control rating, LV activity at 125.1 g/H” value is given as “B (≤ 80)”. Further, the “PUCCRT 1DP disease control rating, LV activity at 125.1 g/H” value with Puccinia triticina (setting [7]) is on record as “D”. For the same compound, the “PUCCRT 3DC disease control rating, LV activity at 125.1 g/H” value with Puccinia triticina (setting [8]) is given as “D”.
For `COc1ccnc(C(=O)N[C@@H](C)C(=O)O[C@@H](C)[C@@H](Oc2ccccc2)C(C)C)c1O` [Cmpd 347], the “SEPTTR 1DP disease control rating, HV activity” value in the assay with Zymoseptoria tritici (setting [1]) was “B (≤ 80)”. Moreover, in the assay with Zymoseptoria tritici (setting [2]), the “SEPTTR 3DC disease control rating, HV activity” value is “B (≤ 80)”. In the assay on Puccinia triticina (setting [3]), the “PUCCRT 1DP disease control rating, HV activity” value is “B (≤ 80)”. Moreover, the “PUCCRT 3DC disease control rating, HV activity” value in the assay with Puccinia triticina (setting [4]) is “A (> 80)”.
With `COc1ccnc(C(=O)NC(C)C(=O)OC(C)C(OC)C23CC4CC(CC(C4)C2)C3)c1O` (centres unmarked) [Cmpd 829], the “SEPTTR 1DP disease control rating, HV activity at 100 ppm” value with Zymoseptoria tritici (100 ppm, 1 day protectant) was “D”. For the same compound, in the assay on Zymoseptoria tritici (100 ppm, 3 day curative), the “SEPTTR 3DC disease control rating, HV activity at 100 ppm” value is “D”. Also, in the assay with Puccinia triticina (100 ppm, 1 day protectant), the “PUCCRT 1DP disease control rating, HV activity at 100 ppm” value is given as “B (≤ 80)”. Moreover, the “PUCCRT 3DC disease control rating, HV activity at 100 ppm” value with Puccinia triticina (100 ppm, 3 day curative) is “D”.
As for `COc1cc(O[C@H](CC(C)C)[C@H](C)OC(=O)[C@H](C)NC(=O)c2nccc(OC)c2O)ccc1Cl` [Cmpd 1052], the “HV activity at 100 ppm SEPTTR 1DP (disease control rating)” value in the assay on Zymoseptoria tritici (HV application, 100 ppm, 1 Day Protectant, wheat leaf blotch) is listed as “A (> 80)”. The “HV activity at 100 ppm SEPTTR 3DC (disease control rating)” value with Zymoseptoria tritici (HV application, 100 ppm, 3 Day Curative, wheat leaf blotch) was “A (> 80)”. In addition, the “HV activity at 100 ppm PUCCRT 1DP (disease control rating)” value in the assay on Puccinia triticina (HV application, 100 ppm, 1 Day Protectant, wheat brown rust) is on record as “A (> 80)”. In the assay on Puccinia triticina (HV application, 100 ppm, 3 Day Curative, wheat brown rust), the “HV activity at 100 ppm PUCCRT 3DC (disease control rating)” value was “A (> 80)”.
